Patent US20250134870A1, “PATHWAY MODULATOR, PHARMACEUTICAL COMPOSITION HAVING SAME, USE THEREOF, AND THERAPEUTIC METHOD USING SAME” (Jiangsu Yahong Meditech Co., Ltd., priority 2021, published 2025)

What was measured:
[1] = Body weight and weight change rate of EAU rats (Example 6); assay type: in vivo, Lewis rats
From the text: Wherein, Day 0 referred to the day of immunization. The body weight of each rat was monitored twice a week after immunization.
Dosing started from Day 0 accurately according to the animal body weight for a total of 16 days.

[2] = test system: imiquimod (IMQ)-induced psoriasis; assay: Imiquimod (IMQ)-induced psoriasis in mice: erythema, scales, thickness, total score, AUC (Example 8); assay type: in vivo, Balb/c mice; set-up: key to erythema score / scales score / thickness score: 0 = none, 1 = mild, 2 = moderate, 3 = obvious/severe; key to total score of erythema + scales + thickness: sum of three 0-3 scores (erythema + scales + thickening), 0-9
Procedure: All mice were shaved with a pet shaver to get an area of 2×3 cm on the back one day before the start of the experiment.
65 animals were randomly divided into groups according to body weight, and the dosing regimen was as follows.
Imiquimod (IMQ) cream: 62.5 mg of IMQ cream for each mouse in G2 to G7; Dexamethasone (DEX) ointment: 70 mg of ointment for each mouse in G4;
Tofacitinib: Tofacitinib was dissolved in dimethyl sulfoxide to 5 mg/mL, and 50 μL was added to IMQ cream for daily treatment.
Mice in Groups 2 to 7 received daily topical doses of 62.5 mg of IMQ cream on their shaved back from Day 0 to Day 7.
Dosing of the test compounds and reference substance was carried out according to Table 29 for 7 consecutive days.
To assess the severity of inflammation of skin on the back, the skin on the back was scored according to Table 30. Erythema, scales and thickening were scored independently on a scale of 0 to 3, 0, none; 1. mild; 2. moderate; 3. obvious/severe.
The inhibition rate was calculated according to the following formula: Inhibition rate=[AUC (solvent)−AUC (treatment)]/AUC (solvent)×100%. Wherein, solvent referred to the solvent group corresponding to the route of administration.

congestive heart failure = conditions: cited from earlier work
[3] = Day 0, 50 mg/kg oral QD (Nepicastat A)
[4] = Day 0, 100 mg/kg topical QD (Nepicastat B)
[5] = Day 0, group Nepicastat A (50 mpk oral)
[6] = Day 0, group Nepicastat B (100 mpk topical)
[7] = Day 1, 50 mg/kg oral QD (Nepicastat A)
[8] = Day 1, 100 mg/kg topical QD (Nepicastat B)
[9] = Day 1, group Nepicastat A (50 mpk oral)
[10] = Day 1, group Nepicastat B (100 mpk topical)
[11] = Day 2, 50 mg/kg oral QD (Nepicastat A)
[12] = Day 2, 100 mg/kg topical QD (Nepicastat B)
[13] = Day 2, group Nepicastat A (50 mpk oral)
[14] = Day 2, group Nepicastat B (100 mpk topical)
[15] = Day 3, 50 mg/kg oral QD (Nepicastat A)
[16] = Day 3, 100 mg/kg topical QD (Nepicastat B)
[17] = Day 3, group Nepicastat A (50 mpk oral)
[18] = Day 3, group Nepicastat B (100 mpk topical)
[19] = Day 4, 50 mg/kg oral QD (Nepicastat A)
[20] = Day 4, 100 mg/kg topical QD (Nepicastat B)
[21] = Day 4, group Nepicastat A (50 mpk oral)
[22] = Day 4, group Nepicastat B (100 mpk topical)
[23] = Day 5, 50 mg/kg oral QD (Nepicastat A)
[24] = Day 5, 100 mg/kg topical QD (Nepicastat B)
[25] = Day 5, group Nepicastat A (50 mpk oral)
[26] = Day 5, group Nepicastat B (100 mpk topical)
[27] = Day 6, 50 mg/kg oral QD (Nepicastat A)
[28] = Day 6, 100 mg/kg topical QD (Nepicastat B)
[29] = Day 6, group Nepicastat A (50 mpk oral)
[30] = Day 6, group Nepicastat B (100 mpk topical)
[31] = Day 7, 50 mg/kg oral QD (Nepicastat A)
[32] = Day 7, 100 mg/kg topical QD (Nepicastat B)
[33] = Day 7, group Nepicastat A (50 mpk oral)
[34] = Day 7, group Nepicastat B (100 mpk topical)
[35] = oral administration 50 mg/kg, Day 5 to Day 7

## NCc1c[nH]c(=S)n1[C@H]1CCc2c(F)cc(F)cc2C1 [Nepicastat]
[1]; Day 2, 25 mg/kg PO QD
  Rat body weight: 193.95 g
  Weight change rate (%): 3.25%
[1]; Day 2, 50 mg/kg PO QD
  Rat body weight: 194.04 g
  Weight change rate (%): 2.53%
[1]; Day 2, 100 mg/kg PO QD
  Rat body weight: 194.02 g
  Weight change rate (%): 2.11%
[1]; Day 6, 25 mg/kg PO QD
  Rat body weight: 204.67 g
  Weight change rate (%): 7.06%
[1]; Day 6, 50 mg/kg PO QD
  Rat body weight: 202.28 g
  Weight change rate (%): 6.90%
[1]; Day 6, 100 mg/kg PO QD
  Rat body weight: 205.97 g
  Weight change rate (%): 8.45%
[1]; Day 9, 25 mg/kg PO QD
  Rat body weight: 207.81 g
  Weight change rate (%): 9.26%
[1]; Day 9, 50 mg/kg PO QD
  Rat body weight: 206.07 g
  Weight change rate (%): 8.83%
[1]; Day 9, 100 mg/kg PO QD
  Rat body weight: 214.36 g
  Weight change rate (%): 12.84%
[1]; Day 13, 25 mg/kg PO QD
  Rat body weight: 214.28 g
  Weight change rate (%): 12.23%
[1]; Day 13, 50 mg/kg PO QD
  Rat body weight: 216.20 g
  Weight change rate (%): 14.24%
[1]; Day 13, 100 mg/kg PO QD
  Rat body weight: 223.98 g
  Weight change rate (%): 17.96%
[1]; Day 16, 25 mg/kg PO QD
  Rat body weight: 219.00 g
  Weight change rate (%): 12.36%
[1]; Day 16, 50 mg/kg PO QD
  Rat body weight: 218.42 g
  Weight change rate (%): 15.41%
[1]; Day 16, 100 mg/kg PO QD
  Rat body weight: 227.40 g
  Weight change rate (%): 19.77%
[1]; Day −1, 25 mg/kg PO QD
  Rat body weight: 188.31 g
  Weight change rate (%): 0.00%
[1]; Day −1, 50 mg/kg PO QD
  Rat body weight: 189.34 g
  Weight change rate (%): 0.00%
[1]; Day −1, 100 mg/kg PO QD
  Rat body weight: 189.92 g
  Weight change rate (%): 0.00%
[2]; 50 mg/kg oral and 100 mg/kg topical QD × 7 days
  progression and incidence of the disease: did not affect the progression and incidence of the disease, but showed efficacy at the later stages of the disease course (Day 5 to Day 7)
[2]; 100 mpk topical QD × 7 days
  efficacy on the clinical score of the skin: no significant efficacy
[2]; [3]
  erythema score: 0
  scales score: 0
[2]; [4]
  erythema score: 0
  scales score: 0
[2]; [5]
  thickness score: 0
  total score of erythema + scales + thickness: 0
[2]; [6]
  thickness score: 0
  total score of erythema + scales + thickness: 0
[2]; [7]
  erythema score: 0
  scales score: 0
[2]; [8]
  erythema score: 0
  scales score: 0
[2]; [9]
  thickness score: 0.6
  total score of erythema + scales + thickness: 0.6
[2]; [10]
  thickness score: 0.9
  total score of erythema + scales + thickness: 0.9
[2]; [11]
  erythema score: 1.4
  scales score: 0
[2]; [12]
  erythema score: 1.5
  scales score: 0
[2]; [13]
  thickness score: 1.2
  total score of erythema + scales + thickness: 2.6
[2]; [14]
  thickness score: 1.3
  total score of erythema + scales + thickness: 2.8
[2]; [15]
  erythema score: 1.5
  scales score: 0
[2]; [16]
  erythema score: 1.8
  scales score: 0
[2]; [17]
  thickness score: 1.6
  total score of erythema + scales + thickness: 3.1
[2]; [18]
  thickness score: 1.5
  total score of erythema + scales + thickness: 3.3
[2]; [19]
  erythema score: 1.6
  scales score: 1.1
[2]; [20]
  erythema score: 1.8
  scales score: 1.2
[2]; [21]
  thickness score: 1.4
  total score of erythema + scales + thickness: 4.1
[2]; [22]
  thickness score: 1.5
  total score of erythema + scales + thickness: 4.5
[2]; [23]
  erythema score: 1.6
  scales score: 1.6
[2]; [24]
  erythema score: 1.7
  scales score: 2.5
[2]; [25]
  thickness score: 1.3
  total score of erythema + scales + thickness: 4.5
[2]; [26]
  thickness score: 1.3
  total score of erythema + scales + thickness: 5.5
[2]; [27]
  erythema score: 1.7
  scales score: 1.9
[2]; [28]
  erythema score: 1.5
  scales score: 2.4
[2]; [29]
  thickness score: 1.4
  total score of erythema + scales + thickness: 5
[2]; [30]
  thickness score: 1.3
  total score of erythema + scales + thickness: 5.2
[2]; [31]
  erythema score: 1.6
  scales score: 2.1
[2]; [32]
  erythema score: 1.2
  scales score: 2.1
[2]; [33]
  thickness score: 1.4
  total score of erythema + scales + thickness: 5.1
[2]; [34]
  thickness score: 1.4
  total score of erythema + scales + thickness: 4.7
[2]; Mus musculus, 168 h, 50 mpk oral QD × 7 days, vs corresponding solvent group, read-out: inhibition rate (AUC of total clinical score)
  inhibition at 50 mg/kg: 23.6%
[2]; PO 50 mg/kg QD × 7 days, vs solvent group and control group
  therapeutic effect on clinical symptoms: mild therapeutic effect on clinical symptoms
[2]; [35]
  erythema: inhibited
  thickness: inhibited
[2]; topical administration 100 mg/kg, Day 4 to Day 7
  erythema: inhibited
Congestive heart failure; further clinical studies
  effect in the treatment of heart failure: no effect in the treatment of heart failure
Congestive heart failure; patients, congestive heart failure
  tolerability: well tolerated in patients
